Experiment [1] deals with gp100 (native or modified). It is filed as in vivo, A2Kb transgenic mice. As to conditions: priming with 20.0 μg toxoid i.m., then ALVAC gp100 recombinant given as a mixture with the toxoid; FIGS. 7 and 8.
Experiment [2] has as its system CEA. It is filed as in vivo, A2Kb transgenic mice. The following applies: priming with 20.0 μg toxoid i.m., then ALVAC CEA recombinant given as a mixture with the toxoid; FIG. 6.
Experiment [3] concerns modified gp100. The arrangement: species or system A2Kb transgenic mice. The following applies: mouse, in vivo.

In the case of diphtheria toxoid, in experiment [1], the “immune response to the modified gp100 and gp100 antigens (reactive T cells, IFN gamma ELISPOT)” value was “clearly enhanced”. Besides, the “immune response to the CEA antigen (reactive T cells, IFN gamma ELISPOT)” value in experiment [2] is recorded as “clearly enhanced”.
For the substance tetanus toxoid, the “immune response to the immunogen modified gp100 (gp100-specific CTL response)” value in experiment [3] is on record as “clearly enhanced”. Besides, the “immune response to the modified gp100 and gp100 antigens (reactive T cells, IFN gamma ELISPOT)” value in experiment [1] was “clearly enhanced”. Further, in experiment [2], the “immune response to the CEA antigen (reactive T cells, IFN gamma ELISPOT)” value was “clearly enhanced”.

The values above are taken from US20040009185A1, “Enhancing the immune response to an antigen by presensitzing with an inducing agent prior to immunizing with the agent and the antigen” (priority 2003, published 2004).
